Measured values taken from US6410219B1 (priority 1994, dated 2002).
Counter-ions that a name gives are not always drawn.

What was measured:
R17 [1] = format: cell-based, bacteriophage R17
red blood cells [2] = experiment: IgG binding to red blood cell surfaces (Example 10); format: cell-based; details: 10-300 μg/ml
Procedure: Potassium levels on remaining samples were measured and the samples were stored at 4° C. Potassium measurements were repeated daily for one week or until significant differences were observed. Extracellular potassium data appears in Table 15, and FIG. 6. IgG binding in the samples was measured using Baxter Unival Anti-Human Globulin Anti-IgG for Direct Antiglobulin Test and Baxter Coornbs control Cells for Quality Control of Anti-Human Globulin Test (both available from Baxter Healthcare Corporation, Deerfield, Ill.). The results of IgG Binding as measured by FACScan™ (Becton Dickinson, Mountain View, Calif.) appear in Tables 15 and 16: […]

red blood cells [3] = tested on: red blood cells
CA-HIV = format: cell-based
red blood cells [4] = details: Swiss Webster, mouse, in vivo
red blood cells [5] = details: mouse, in vivo
R-17 = format: cell-based, bacteriophage R17
R17 [6] = format: cell-based, bacteriophage R17; remark: listed apart in the source

## O=C(O)CCCc1ccc(N(CCCl)CCCl)cc1 [Chlorambucil, chlorambucil]
R17 [1]
  R17 inactivation: ≤ 0.4 logs
Red blood cells [2]
  IgG binding of red cells: did not alter
Red blood cells [3]
  potassium leakage of red cells: did not alter

## 4′-[4-(Bis-2-chloroethyl)amino-1-butylaminomethyl]-4,5′,8-trimethylpsoralen [Compound S-210]
CA-HIV
  Logs Virus Killed at Fixed Drug Dose, CA-HIV: 0.8

## CCN(CCCl)CCCNc1c2ccc(Cl)cc2nc2ccc(OC)cc12 [ICR-170, N-(2-chloroethyl)-N-ethyl-N′-(6-chloro-2-methoxy-9-acridinyl)-1,3-propanediamine dihydrochloride]
Red blood cells [4]
  LOSS PER DAY: 2.71%
  RECOVERY: 86.0 ± 6.6
Red blood cells [5]; Balb/c
  % RECOVERY, LOW: 93.1%
Red blood cells [5]
  % RECOVERY, HIGH: 90.4%

## 4′-[3-(Bis-2-chloroethyl)amino-1-propylaminomethyl]-4,5′,8-trimethylpsoralen
R-17
  Dose for 5 log kill R-17: ≦2 μM
CA-HIV
  Logs Virus Killed at Fixed Drug Dose, CA-HIV: 0.4

## COc1c2occc2c(CN(C)CO)c2ccc(=O)oc12
R-17
  Dose for 5 log kill R-17: >75 μM
  Logs Virus Killed at Fixed Drug Dose, R-17: <0.5

## CCN(CC)CCCC(C)Nc1c2ccc(Cl)cc2nc2ccc(OC)cc12 (stereo not shown) [Q, quinicrine]
R17 [6]
  light-dependent kill of R17: no light-dependent kill

## 5′-[4-(Bis-2chloroethyl)amino-1-butylaminomethyl]-4,4′, 8-trimethylpsoralen
R-17
  Dose for 5 log kill R-17: ≦2 μM
  Logs Virus Killed at Fixed Drug Dose, R-17: >6
CA-HIV
  Logs Virus Killed at Fixed Drug Dose, CA-HIV: 0.7
